Values joined by “and” are separate entries in the source; they are usually repeats but may differ in a detail not shown here. Equal values may be shown once.
Key:
DU145 cells = experiment: BrdU incorporation assay, DU145; type: cell-based, human; conditions: ATRA 10 µM
Description: Cells were treated with the inhibitors and stimulated with 1 nM of R1881 (+) or vehicle (−) for 24 to 72 h. Each data point represents the average from an independent experiment where the error bars show the mean ± s.e.m.
BrdU incorporation was determined with the colorimetric BrdU ELISA kit (Roche Diagnostics), according to the manufacturer’s protocol. In brief, cells were seeded in 96-well plates (LNCaP, 5000/well; LN95, 8000/well; PC-3 and DU145, 4000/wells) in media with reduced serum (0.5–1%). On the following day, cells were pre-treated with test compounds for 1 h and then incubated with 0.1 nM of R1881. After the indicated incubation times, cells were labeled with 10 μM of BrdU for 2 h and then fixed for the assay.

full-length AR = molecular target: T1, full-length AR (Homo sapiens, UniProt P10275, T878A); experiment: Probasin (PB)-luciferase AR-driven reporter assay in LNCaP cells; type: cell-based; conditions: 24 h, R1881 1 nM
T1 construct: Transcriptional activity of full-length AR was assessed in LNCaP cells; endogenous in cells; host or cells: LNCaP
T1 sequence (P10275 1-920 T878A): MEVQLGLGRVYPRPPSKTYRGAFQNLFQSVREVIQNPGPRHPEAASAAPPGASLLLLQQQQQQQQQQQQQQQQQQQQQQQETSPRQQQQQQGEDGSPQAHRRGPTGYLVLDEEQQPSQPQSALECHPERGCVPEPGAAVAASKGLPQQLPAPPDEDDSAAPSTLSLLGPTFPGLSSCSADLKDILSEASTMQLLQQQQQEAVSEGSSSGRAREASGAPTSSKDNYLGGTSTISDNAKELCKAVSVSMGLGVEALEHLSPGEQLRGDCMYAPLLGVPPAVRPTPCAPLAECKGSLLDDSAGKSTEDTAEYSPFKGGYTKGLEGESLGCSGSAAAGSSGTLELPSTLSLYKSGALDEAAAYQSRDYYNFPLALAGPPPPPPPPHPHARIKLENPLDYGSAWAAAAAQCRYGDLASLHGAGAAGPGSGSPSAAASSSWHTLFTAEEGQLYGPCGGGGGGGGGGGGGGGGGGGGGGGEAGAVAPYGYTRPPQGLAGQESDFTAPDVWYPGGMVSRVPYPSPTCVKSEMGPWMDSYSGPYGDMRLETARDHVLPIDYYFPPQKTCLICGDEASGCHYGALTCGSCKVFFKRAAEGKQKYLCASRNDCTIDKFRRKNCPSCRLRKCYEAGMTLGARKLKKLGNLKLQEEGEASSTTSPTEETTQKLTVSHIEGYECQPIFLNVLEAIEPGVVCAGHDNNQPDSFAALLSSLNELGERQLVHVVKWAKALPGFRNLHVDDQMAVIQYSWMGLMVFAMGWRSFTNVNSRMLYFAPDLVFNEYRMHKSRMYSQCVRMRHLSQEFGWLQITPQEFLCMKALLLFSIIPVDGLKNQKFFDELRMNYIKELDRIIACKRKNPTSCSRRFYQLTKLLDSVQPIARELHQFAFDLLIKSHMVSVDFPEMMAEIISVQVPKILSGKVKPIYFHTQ

[1] = molecular target: T2, human AR NTD (AR1–558) fused to Gal4DBD (Gal4-ARN) (Homo sapiens, UniProt P10275); experiment: AR NTD transactivation assay (Gal4-ARN) in LNCaP cells; type: cell-based; conditions: EPI-002 25 μM, juglone 20 μM, ATRA 10 μM, 24 h
T2 construct: construct encoding the human AR1–558 of the NTD fused to a Gal4DBD (Gal4-ARN); expressed in transfected cells; host or cells: LNCaP
T2 sequence (P10275 1-558): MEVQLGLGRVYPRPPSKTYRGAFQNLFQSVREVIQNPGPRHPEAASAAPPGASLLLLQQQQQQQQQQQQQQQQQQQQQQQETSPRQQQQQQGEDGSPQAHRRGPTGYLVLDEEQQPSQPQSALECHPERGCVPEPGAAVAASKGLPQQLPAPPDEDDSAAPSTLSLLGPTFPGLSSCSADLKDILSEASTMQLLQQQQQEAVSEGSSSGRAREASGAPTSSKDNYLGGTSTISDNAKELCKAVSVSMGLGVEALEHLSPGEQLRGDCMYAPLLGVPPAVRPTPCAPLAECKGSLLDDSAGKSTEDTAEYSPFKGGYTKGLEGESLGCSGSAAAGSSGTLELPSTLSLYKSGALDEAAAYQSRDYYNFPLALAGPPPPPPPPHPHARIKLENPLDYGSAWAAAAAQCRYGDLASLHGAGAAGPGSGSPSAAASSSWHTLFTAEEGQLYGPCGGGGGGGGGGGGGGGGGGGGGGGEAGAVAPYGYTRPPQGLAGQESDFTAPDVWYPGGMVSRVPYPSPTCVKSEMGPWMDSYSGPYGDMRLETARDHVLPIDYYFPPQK
Source text: The remaining putative Pin1-binding sites are within the intrinsically disordered AR NTD that contains transcription activation units, Tau-1 and Tau-5, to mediate androgen-dependent and androgen-independent transactivation, respectively[5],[30]. The loss of AR-LBD shifts the location of transcriptional activity from Tau-1 with androgen, to Tau-5 in the absence of LBD[30].
Error bars show the mean ± s.e.m. *P < 0.05, **P < 0.01, ***P < 0.001; ns not significant.

[2] = system: phosphorylated MAPK (p44 and p42) and STAT3 (Tyr705 and Ser727); experiment: Western blot of phosphorylated MAPK and STAT3 after IL-6 in LNCaP cells; type: cell-based, human; conditions: juglone 20 µM, IL-6 50 ng/mL 15 min
Description: Fig. 3 Pin1 interacts with the AR NTD and regulates transactivation. a, b Transactivation assays performed in LNCaP cells expressing a vector encoding the human AR NTD fused to a Gal4 DNA-binding domain (Gal4-ARN). […] Input samples show Pin1 expression from lysates before the pull-down. i Co-immunoprecipitation assay showing AR protein co-immunoprecipitated with STAT3 from LNCaP cells incubated with EPI-002 (EPI, 35 μM), juglone (JUG, 30 μM), or vehicle (VEH, DMSO), and IL-6 (50 ng/mL) for 6 h. j, k Levels of phosphorylated MAPK (isoforms p44 and p42) and phosphorylated STAT3 (Tyr705 and Ser727) from LNCaP cells pre-treated with juglone (20 µM) and then stimulated with IL-6 (50 ng/mL) for 15 min. Error bars show the mean ± s.e.m. *P < 0.05, **P < 0.01, ***P < 0.001; ns not significant.

| SMILES | effect on proliferation of DU145 cells (DU145 cells) | BrdU incorporation, DU145 (Fig. 4d) (DU145 cells; − R1881, ENZ 10 µM, EPI-002 25 µM, JUG 20 µM) | remaining activity at 10 µM (full-length AR; inhibitor 10 μM, read-out: PB-luciferase activity normalized to the induction by R1881 (=100) (Fig. 2b)) [%] | IC50 (full-length AR; read-out: IC50, androgen-induced PB-luciferase activity) [µM] | effect on IL-6-induced transactivation of AR NTD (Gal4-ARN) ([1]; IL-6 50 ng/mL) | effect on forskolin-induced transactivation of AR NTD (Gal4-ARN) ([1]; forskolin 25 μM) | effect on IL-6-induced phosphorylation of MAPK and STAT3 [2] |
| --- | --- | --- | --- | --- | --- | --- | --- |
| CC1=C(/C=C/C(C)=C/C=C/C(C)=C/C(=O)O)C(C)(C)CCC1 [ATRA, all-trans retinoic acid] | did not impact the proliferation of either PC-3 or DU145 cells | 0.607 and 0.932 and 1.111 and 0.945 | – | – | – | – | – |
| O=C1C=CC(=O)c2c(O)cccc21 [juglone] | – | – | 22.5 | 6.45 | only inhibited IL-6-induced transactivation | only inhibited IL-6-induced transactivation | did not prevent phosphorylation of MAPK (isoforms p44 and p42) or STAT3 (Tyr705 and Ser727) |
